This passage reports GI50 and TGI results from PubChem BioAssay (NCI).

Each structure is given as a SMILES string.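 Where inhibition never reached the appropriate level, the endpoint shown equals the highest concentration tested. Otherwise, values were interpolated linearly from a five-concentration, 48-hour dose response in 96-well plates. GI50 marks 50% less growth. The concentration for full growth arrest is given as TGI.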 A value given as a limit tells only on which side of the number the result lay.

Holding throughout (assay): growth of human tumour cells (NCI), 48 h
In experiment [1] the test system is UO-31 renal.
Experiment [2] concerns SNB-19 CNS.
The test system of experiment [3] is KM12 colon.
For experiment [4], the system named is 786-0 renal.
The subject of experiment [5] is RPMI-8226 leukemia.
The test system of experiment [6] is NCI/ADR-RES ovarian.
Experiment [7] deals with HOP-62 NSCLC.
Experiment [8] deals with SK-MEL-28 melanoma.

For `COc1ccc(C(=O)c2cc(C)c(OC)c(C)c2)c(OC)c1NC(C)=O`, the GI50 in experiment [1] is 0.167 µM; in experiment [2], 0.265 µM; in experiment [3], 0.153 µM; in experiment [4], 0.0562 µM; in experiment [5], 0.785 µM; in experiment [6], 0.131 µM. Moreover, the GI50 is 0.239 µM in experiment [7] and 0.504 µM in experiment [8]. Moreover, the TGI in experiment [1] was greater than 63.1 µM; in experiment [2], greater than 100 µM; in experiment [3], greater than 100 µM; in experiment [4], greater than 100 µM; in experiment [5], greater than 100 µM; in experiment [6], 0.573 µM. For the same compound, the TGI in experiment [7] and in experiment [8] was greater than 100 µM throughout.
Turning to `COc1ccc(-c2ccc(/C=N/n3c(COc4ccccc4Cl)nn(CN4CCOCC4)c3=S)o2)c([N+](=O)[O-])c1`, the GI50 in experiment [1] was 37.1 µM; in experiment [2], 36.2 µM; in experiment [3] it was 17.1 µM; in experiment [4], 34.4 µM; in experiment [5], 15.2 µM; in experiment [6] it was 21.3 µM. Further, the results for the GI50 in experiment [7] and in experiment [8] were 30 µM and 46 µM, respectively. For the same compound, the TGI in experiment [1] was greater than 100 µM; in experiment [2], greater than 100 µM; in experiment [3], 34.6 µM; in experiment [4], greater than 100 µM; in experiment [5], 42.1 µM; in experiment [6] it was 49.2 µM. Besides, the TGI in experiment [7] is 85.5 µM; in experiment [8], greater than 100 µM.
`Cc1cc(N(CCOS(C)(=O)=O)CCOS(C)(=O)=O)ccc1C(=O)O`: the GI50 in experiment [1], in experiment [2], in experiment [3], in experiment [4], in experiment [5] and in experiment [6] was greater than 100 µM in each case. For the same compound, the GI50 in experiment [7] and in experiment [8] was greater than 100 µM each time. Also, the TGI in experiment [1], in experiment [2], in experiment [3], in experiment [4], in experiment [5] and in experiment [6] was greater than 100 µM each time. In addition, the TGI in experiment [7] and in experiment [8] was greater than 100 µM throughout.
In the case of `O=C(CN(/C=C/C(=O)C(F)(F)F)c1ccc(Cl)cc1)c1ccc(Cl)c(Cl)c1`, the GI50 in experiment [1] is 5.65 µM; in experiment [2], 15.4 µM; in experiment [3] it was 2.62 µM; in experiment [4], 11.5 µM; in experiment [5] it was 3.74 µM; in experiment [6] it was 6.03 µM. The GI50 in experiment [7] is 11.5 µM; in experiment [8] it was 16.7 µM. The TGI in experiment [1] stood at 18.8 µM; in experiment [2] it was 33.6 µM; in experiment [3], 10.8 µM; in experiment [4], 24.5 µM; in experiment [5], 17 µM; in experiment [6], 19.7 µM. The TGI was determined as 23.8 µM in experiment [7] and 45 µM in experiment [8].
On to `NC(=O)c1ccc(Oc2nccc(-c3c(-c4ccc(F)cc4)ncn3C3CCNCC3)n2)cc1`, for which the GI50 in experiment [1], in experiment [2], in experiment [3], in experiment [4], in experiment [5] and in experiment [6] was greater than 25 µM in each case. Further, the GI50 in experiment [7] and in experiment [8] was greater than 25 µM each time. Further, the TGI in experiment [1], in experiment [2], in experiment [3], in experiment [4], in experiment [5] and in experiment [6] was greater than 25 µM throughout. The TGI in experiment [7] and in experiment [8] was greater than 25 µM throughout.
Take `Cc1ccc(-c2nc(/C=N/Nc3cc(C)nc4ccc(Cl)cc34)c(C)o2)cc1`: the GI50 is 1.62 µM in experiment [1]; 1.84 µM in experiment [2]; 1.88 µM in experiment [3]; 1.42 µM in experiment [4]; 1.69 µM in experiment [5]; 2.1 µM in experiment [6]. In addition, the values for the GI50 in experiment [7] and in experiment [8] were 1.88 µM and 1.81 µM, respectively. Also, the TGI was 2.98 µM in experiment [1]; 3.49 µM in experiment [2]; 3.88 µM in experiment [3]; 2.76 µM in experiment [4]; 4.2 µM in experiment [5]; 4.67 µM in experiment [6]. The TGI came to 3.58 µM in experiment [7] and 3.29 µM in experiment [8].
As for `O=C(NCCCc1cn[nH]c1)c1ccc(-c2ccncc2)c(C#Cc2ccc(F)cc2)c1`, the GI50 in experiment [1] is 3.4 µM; in experiment [2], 0.229 µM; in experiment [3], less than 0.0155 µM; in experiment [4], 3.66 µM; in experiment [5], less than 0.0113 µM; in experiment [6] it was less than 0.0116 µM. Besides, the results for the GI50 in experiment [7] and in experiment [8] were 5.49 µM and 14.4 µM, respectively. Also, the TGI was greater than 67.2 µM in experiment [1]; greater than 100 µM in experiment [2]; greater than 83.2 µM in experiment [3]; greater than 64.1 µM in experiment [4]; 9.54 µM in experiment [5]; greater than 100 µM in experiment [6]. Moreover, the results for the TGI in experiment [7] and in experiment [8] were greater than 64.9 µM and greater than 100 µM, respectively.
